Series [1] concerns male C57/B6 mice. The conditions noted are these: mouse, in vivo. How it is done: Quantitative PCR (QPCR) with microRNA specific primer sets were used to confirm the results from array hybridization. In brief, a SYBR Green based method, miScript real-time PCR (Qiagen Inc. Valencia, Calif., USA), or TaqMan primer set from Apply Biosystems, was used with 50 ng of total RNA from each sample. The first strand cDNA was generated according to the manufacturer's instruction. Approximately 2.5 ng of cDNA was used in the PCR reaction. The yield of 18 to 20 base pair fragments (based on SYBR Green intensity) corresponding to the specific microRNA species was monitored with the 7900HT fast real-time PCR system from Applied Biosystems (Applied Biosystems, Foster City, Calif.). QPCR results were analyzed by SDS 2.2.2, with a manual CT threshold value of 0.2.
The male C57/B6 mice were randomly grouped into nine different groups with 4 animals in each group. […] Mice were sacrificed and plasma samples were collected at 1, 3 and 24 hours post-exposure. The nine groups were: 1) 1 hour control; 2) 1 hour treatment 1; 3) 1 hour treatment 2; 4) 1 hour treatment 3; 5) 3 hour control; 6) 3 hour treatment 1; 7) 3 hour treatment 2; 8) 3 hour treatment 3; and 9) 24 hour treatment 3. […] The expression levels of two different microRNA sequences, mir-486 and mir-122, in the serum were profiled by quantitative polymerase chain reactions (Q-PCR). […]

Series [2] relates to male C57/B6 mice. The series is described as follows: microRNA profile of plasma, acetaminophen treatment group vs control group. It counts as in vivo. The following applies: 300 mg/kg single intraperitoneal injection, 24 hours post exposure, FIG. 3. How it is done: Approximately, 800 μl of QIAzol lysis reagent was added to 200 μl liquid sample. The sample was mixed in a tube followed by adding 200 μl of chloroform. After mixing rigorously for 15 seconds, the sample was then centrifuged at 12,000×g for 15 minutes. The upper aqueous phase was carefully transferred to a new collection tube, and 1.5 total volumes of ethanol was added. The sample was then applied directly to a glass membrane containing column and the RNA was bound and purified by three contiguous washing to remove unwanted contamination. The immobilized RNA was then collected from the membrane with a low salt elution buffer.
The male C57/B6 mice were randomly grouped into two groups, a treatment group (3 animals) and control group (4 animals). […] Mice were sacrificed at 24 hours post exposure, the plasma samples were collected and RNA was isolated.
The expression levels of microRNA sequences in the serum were used to make a microRNA profile. The differentially expressed microRNA sequences between the treatment group and the control group were clustered with the Hierarchical clustering method and is shown in FIG. 3.

With `CC(=O)Nc1ccc(O)cc1` [acetaminophen], the “mir-486 and mir-122 intensities at one hour” value in series [1] was “Clear changes”. In addition, the “levels of microRNA sequences in serum/plasma, treatment vs control” value in series [2] is “levels of certain microRNA sequences in the serum could be used as an indication of the acetaminophen toxicity”.

Values taken from patent US8748101B2, “Methods, compositions, and devices utilizing MicroRNA to determine physiological conditions” (Battelle Memorial Institute, priority 2008, dated 2014).
